46 compounds from patent publication US20260356803A1, “Nicotinamide derivatives” (Board of Regents, The University of Texas System, priority 2024, published 2026) can be followed below.

Holding throughout (assay type): cell-based
Assay [1] relates to human MPNST cell line S462. Description: S462 cell viability (CellTiter-Glo, 72 h). The text has this: This similarity, in addition to the scaffold's particular sensitivity to modifications around the pyridinyl ring led us to hypothesize that the activity of compounds 1 and 9 may depend on the concentration of Nam in the media. To test this hypothesis, we analyzed the activity of both compounds in media supplemented with increasing concentrations of Nam. […] Given that Nam inhibited compound activity, we considered Nam concentrations in basal culture conditions (DMEM supplemented with 10% fetal bovine serum or FBS) as compared to physiological levels. Nam levels in human serum are estimated to be in the 4 μM range.^5 In contrast, DMEM alone contains […] of Nam and the concentration in 10% FBS is expected to range between 0.574-1.56 μM.^6 To more closely reflect physiologic levels of Nam, we evaluated the activity of these compounds in cells grown in DMEM lacking Nam (Nam-free DMEM), so that the only exogenous Nam derives from 10% FBS. […] These observations indicate that the potency of these compounds is in the nanomolar range when tested in the presence of physiological levels of Nam.
We thus re-assessed the structure activity relationship of compound 21 analogs in Nam-free DMEM supplemented with or without 100 μM Nam (see appendix below: Synthesis, characterization and activity of micromolar and nanomolar active nicotinamide derivatives). […] Particularly notable, even in Nam-depleted conditions, all active analogs retained the same 3-pyridinyl ring as Nam, reinforcing the relationship between structural resemblance to Nam and compound efficacy.
In 96-well assay plates (Corning #2903), 2,000 cells were plated per well in 100 μL of medium and allowed to adhere overnight. The next day, compounds or Nam suspended in DMSO were dispensed to the assayed wells using a D300e Digital Dispenser (Tecan). All wells were normalized to 0.5% DMSO. 72 hours after incubation at 37 °C in 5% CO2, cell viability was assayed using an ATP-based luminescent viability assay, CellTiter-Glo (Promega #G8462). CellTiter-Glo substrate was mixed 1:1 with phosphate-buffered saline (PBS) supplemented with 1% Triton X-100, and 40 μL of this mixture was added to the assay wells. After the plates were shaken on a microplate shaker for 10 minutes at room temperature, luminescence was recorded using a Synergy 2 Microplate Reader or Cytation 5 plate reader (BioTek). In Prism 9 software (GraphPad), ten-point dose response curves were plotted with baseline-correction to the vehicle control well, and IC50 values were calculated by curve fitting using asymmetric (five parameter), least squares fit.
Background: In ATP-based viability assays light output follows the ATP content of the culture.

In assay [2] the test system is iHCT116 cells. Description: Forward genetics resistance selection (IAA-inducible mutagenesis). The text has this: Second, we screened for resistance to 9 in iHCT116 cells, a system that uses inducible mutagenesis and forward genetics to find compound-resistant mutations and thus can reveal both loss of function and gain of function alleles that suppress activity. The iHCT116 system is a barcoded cell line in which we temporally control mutagenesis by the addition of indole acetic acid (IAA) mediated degradation of the mismatch repair protein MLH1.^12 MLN4924 is a small molecule toxin that we use as a positive control to verify that IAA treatment leads to increased mutations. By degrading MLH1 and increasing the overall mutation rate, IAA treatment increases the frequency of UBA3 mutations, leading to a higher rate of MLN4924 resistance. […] Having previously established a relationship between either NMNAT1 levels or NAMPT activity and compound resistance, we analyzed the levels of both enzymes in multiple resistant clones that harbored unique barcode sequences. […] To test whether reduced NMNAT1 levels in these clones contributed to resistance, we ectopically expressed NMNAT1 in either the parental cells or a representative resistant clone with low NMNAT1 expression.

Assay [3] has as its system IMPDH. Description: Guanosine co-titration rescue. The settings on record: guanosine co-titrated. The text has this: Given that vacor, 3-AP, and compound 21 are all metabolized to toxic, NAD-like derivatives through NAMPT and NMNAT, we hypothesized that their anti-cancer activity may also depend on SARM1. To test this, we compared the toxic effects of vacor, 3-AP, and 9 in either wild type cells or cells in which we used CRISPR to silence SARM1. […] These observations highlight that even though these different scaffolds are toxified through the same mechanism, the resulting metabolites may have different activities. We next co-titrated guanosine, which is known to rescue tiazofurin by bypassing IMPDH in guanylate synthesis, with each of the above small molecules. […] To test this hypothesis, we set up in vitro reactions with different combinations of 9, NAMPT and NMNAT. After incubation, metabolites were extracted, reconstituted in aqueous solution and then co-incubated with an established IMPDH2 enzyme assay.

[4] abbreviates: [nicotinamide] 0 μM, Nam-free DMEM, read-out: IC50 (μM), [nicotinamide] 0 μM.
Setting [5] is: [nicotinamide] 33 μM, read-out: IC50 (μM), [nicotinamide] 33 μM.
Setting [6] is: [nicotinamide] 100 μM, read-out: IC50 (μM), [nicotinamide] 100 μM.
The mark [7] stands for this setting: S462, commercial DMEM, highest dose tested 50 μM, read-out: IC50.

Like-named read-outs stand apart in the source and are kept apart here.

In general, IC50 refers to the concentration needed to halve the response being measured. Turning to `Cc1csc(C(=O)Nc2cccnc2)c1`, the IC50 in assay [1] (setting [4]) was 0.302 µM; in assay [1] (setting [5]), > 50 µM; in assay [1] (setting [6]), > 50 µM.
With `O=C(Nc1cccnc1)c1ccccc1`, the IC50 in assay [1] (setting [4]) is 0.064 µM; in assay [1] (setting [5]), 16.8 µM; in assay [1] (setting [6]), > 50 µM.
Regarding `O=C(Nc1cccnc1)c1ccccn1`, the IC50 in assay [1] (setting [4]) is 0.992 µM; in assay [1] (setting [5]), > 50 µM; in assay [1] (setting [6]), > 50 µM.
With `O=C(Nc1cccnc1)c1ccco1`, the results for the IC50 in assay [1] (setting [4]), in assay [1] (setting [5]) and in assay [1] (setting [6]) were 0.022 µM, > 50 µM and > 50 µM, respectively.
For `O=C(Nc1cccnc1)c1cccnn1`, the IC50 in assay [1] (setting [4]) was 18 µM; in assay [1] (setting [5]) it was > 50 µM; in assay [1] (setting [6]), > 50 µM.
As to `O=C(Nc1cccnc1)c1ccoc1`, the IC50 in assay [1] (setting [4]) was 0.948 µM; in assay [1] (setting [5]) it was > 50 µM; in assay [1] (setting [6]) it was > 50 µM.
Consider `Cc1ncsc1C(=O)Nc1cccnc1`, for which the IC50 in assay [1] (setting [5]) and in assay [1] (setting [6]) was > 50 µM in each case.
Take `O=C(Nc1cccnc1)c1ccc[nH]1`: the figures for the IC50 in assay [1] (setting [4]), in assay [1] (setting [5]) and in assay [1] (setting [6]) were 0.08 µM, > 50 µM and > 50 µM, respectively.
With `O=C(Nc1cccnc1)c1ccc(Br)s1`, the values for the IC50 in assay [1] (setting [4]), in assay [1] (setting [5]) and in assay [1] (setting [6]) were 0.234 µM, 15.6 µM and > 50 µM, respectively.
On the same counts, the results for `O=C(Nc1cccnc1)c1ncc[nH]1` are 22.4 µM, > 50 µM and > 50 µM.
Turning to `O=C(Nc1cccnc1)c1ccc(Cl)cc1`, the concentration for half-maximal inhibition (IC50) in assay [1] (setting [4]) was 0.921 µM; in assay [1] (setting [5]) it was > 50 µM; in assay [1] (setting [6]), > 50 µM.
Regarding `O=C(Nc1cccnc1)c1cc2ccccc2s1`, the IC50 was 0.249 µM in assay [1] (setting [4]), 21.4 µM in assay [1] (setting [5]) and > 50 µM in assay [1] (setting [6]).
On the same counts, the results for `COc1ccc(C(=O)Nc2cccnc2)cc1` are 0.686 µM, > 50 µM and > 50 µM.
The corresponding values for `O=C(Nc1cccnc1)c1nccs1` are 1.88 µM, > 50 µM and > 50 µM.
With `O=C(Nc1cccnc1)c1ccc(C(F)(F)F)cc1`, the IC50 was 0.771 µM in assay [1] (setting [4]), > 50 µM in assay [1] (setting [5]) and > 50 µM in assay [1] (setting [6]).
As for `O=C(Nc1cccnc1)c1ncco1`, the IC50 is 19.5 µM in assay [1] (setting [4]), > 50 µM in assay [1] (setting [5]) and > 50 µM in assay [1] (setting [6]).
For the compound `Cc1ccsc1C(=O)Nc1cccnc1`, the results for the IC50 in assay [1] (setting [4]), in assay [1] (setting [5]) and in assay [1] (setting [6]) were 1.08 µM, > 50 µM and > 50 µM, respectively.
On to `N#Cc1ccc(C(=O)Nc2cccnc2)s1`, for which the IC50 was 0.075 µM in assay [1] (setting [4]), 14.2 µM in assay [1] (setting [5]) and > 50 µM in assay [1] (setting [6]).
The corresponding values for `Cc1ccc(C(=O)Nc2cccnc2)s1` are 0.184 µM, > 50 µM and > 50 µM.
In the case of `O=C(Nc1cccnc1)c1cc2c(s1)CCCC2`, the IC50 in assay [1] (setting [4]) was 0.763 µM; in assay [1] (setting [5]) it was > 50 µM; in assay [1] (setting [6]), > 50 µM.
With `COc1cccc(C(=O)Nc2cccnc2)c1`, the IC50 in assay [1] (setting [4]) was 2.36 µM; in assay [1] (setting [5]), > 50 µM; in assay [1] (setting [6]) it was > 50 µM.
In the case of `O=C(Nc1cncc(F)c1)c1cccs1`, the IC50 in assay [1] (setting [5]) and in assay [1] (setting [6]) was > 50 µM each time.
For the compound `Cc1ccccc1C(=O)Nc1cccnc1`, the IC50 in assay [1] (setting [4]) is 14.7 µM; in assay [1] (setting [5]) it was > 50 µM; in assay [1] (setting [6]) it was > 50 µM.
`N#Cc1cncc(NC(=O)c2cccs2)c1`: the IC50 in assay [1] (setting [5]) and in assay [1] (setting [6]) was > 50 µM in each case.
Consider `O=C(Nc1cnc(Cl)c(Cl)c1)c1cccs1`, for which the IC50 in assay [1] (setting [4]) was 8.76 µM; in assay [1] (setting [5]), > 50 µM; in assay [1] (setting [6]), 42.4 µM.
On the same counts, the results for `O=C(Nc1ccon1)c1cccnc1` are 2.73 µM, > 50 µM and > 50 µM.
In the case of `O=C(Nc1ccc(Br)nc1)c1cccs1`, the IC50 in assay [1] (setting [4]) was 8.5 µM; in assay [1] (setting [5]), > 50 µM; in assay [1] (setting [6]), > 50 µM.
For the compound `O=C(Nc1ccccc1)c1cccnc1`, the values for the IC50 in assay [1] (setting [4]), in assay [1] (setting [5]) and in assay [1] (setting [6]) were 0.024 µM, 13.1 µM and > 50 µM, respectively.
With `N#Cc1ccc(NC(=O)c2cccs2)cn1`, the IC50 was 2.78 µM in assay [1] (setting [4]), > 50 µM in assay [1] (setting [5]) and > 50 µM in assay [1] (setting [6]).
Consider `CCOC(=O)c1ccsc1NC(=O)c1cccnc1`, for which the IC50 in assay [1] (setting [5]) and in assay [1] (setting [6]) was > 50 µM each time.
Regarding `O=C(Nc1cc(-c2ccccc2)cs1)c1cccnc1`, the IC50 in assay [1] (setting [4]) turned out to be 2.46 µM; in assay [1] (setting [6]) it was 39.6 µM.
In the case of `Cc1sc(NC(=O)c2cccnc2)c(C#N)c1C`, the IC50 in assay [1] (setting [6]) is > 50 µM.
Regarding `CCOC(=O)c1ccc(NC(=O)c2cccnc2)s1`, the IC50 in assay [1] (setting [4]) was 0.23 µM; in assay [1] (setting [6]), > 50 µM.
`Cc1cc(C#N)c(NC(=O)c2cccnc2)s1`: in assay [1] (setting [6]), the IC50 is > 50 µM.
`N#Cc1c(NC(=O)c2cccnc2)sc2c1CCC2`: the half-maximal inhibitory concentration (IC50) in assay [1] (setting [4]) was found to be 5.97 µM; in assay [1] (setting [6]) it was 6.1 µM.
Consider `Cc1cccc(C(=O)Nc2cccnc2)c1`, for which the results for the IC50 in assay [1] (setting [4]), in assay [1] (setting [5]) and in assay [1] (setting [6]) were 35.7 µM, > 50 µM and > 50 µM, respectively.
As for `N#Cc1c(NC(=O)c2cccnc2)sc2c1CCCC2`, the IC50 in assay [1] (setting [4]) was 4.74 µM; in assay [1] (setting [6]), 4.72 µM.
With `O=C(Nc1nc2cccnc2s1)c1cccnc1`, the IC50 in assay [1] (setting [4]) is 23.9 µM; in assay [1] (setting [5]), > 50 µM; in assay [1] (setting [6]), > 50 µM.
For the compound `O=C(Nc1ccccc1)c1cccs1` [Compound 2, N-Phenylthiophene-2-carboxamide], in assay [1] (setting [7]), the IC50 is > 50 µM.
Same read-out and setting: in the case of `O=C(Nc1ccccn1)c1cccs1` [Compound 3, N-(Pyridin-2-yl)thiophene-2-carboxamide] it was > 50 µM.
The same measure, in the same setting: in the case of `O=C(Nc1ccncc1)c1cccs1` [Compound 4, N-(Pyridin-4-yl)thiophene-2-carboxamide] it was > 50 µM.
`NS(=O)(=O)OC[C@@H]1C[C@@H](n2ccc3c(N[C@H]4CCc5ccccc54)ncnc32)C[C@@H]1O` [MLN4924, reference compound]: the resistant clones is 33 clones in assay [2] (IAA treated (Mut-on)) and “one” in assay [2] (vehicle (Mut-off)).
With `O=C(Nc1cccs1)c1cccnc1` [drawing 72], the IC50 in assay [1] (setting [4]) was 0.006 µM; in assay [1] (setting [5]) it was 1.2 µM; in assay [1] (setting [6]), > 50 µM.
On to `O=C(Nc1nc2ccccc2s1)c1cccnc1` [drawing 105], for which the IC50 is 0.623 µM in assay [1] (setting [4]) and > 50 µM in assay [1] (setting [6]).
In the case of `O=C(Nc1nc2ccccc2s1)c1cccnc1` [drawing 111], the concentration for half-maximal inhibition (IC50) was 36.2 µM in assay [1] (setting [4]), > 50 µM in assay [1] (setting [5]) and > 50 µM in assay [1] (setting [6]).
Regarding `NC(=O)c1csc([C@@H]2O[C@H](CO)[C@@H](O)[C@H]2O)n1` [tiazofurin, reference compound], the “guanosine rescue of toxicity” value in assay [3] is reported as “guanosine rescue”. Also, the “toxicity to S462” value in assay [1] (10% FBS Nam-free DMEM) is on record as “toxic to S462”. For the same compound, the rescue by nicotinamide entry in assay [1] (10% FBS Nam-free DMEM, comparison of vacor, 3-AP, tiazofurin and 9) is recorded as “all compounds except tiazofurin were rescued by nicotinamide”.
